Measured values reported in patent US20110020463A1, “THERAPEUTIC AGENT FOR FIBROMYALGIA SYNDROME AND THERAPEUTIC AGENT FOR PAIN CAUSED BY MUSCLE SPASM” (priority 2008, published 2011).

Key:
fibromyalgia syndrome = conditions: human, in vivo
right blepharism = conditions: human, in vivo

botulinum toxin
effect on generalized myalgia (fibromyalgia syndrome): no effect
effect on right blepharism (eyelid) (right blepharism): extremely effective
